Laboratory results taken from patent US7524964B2, “Tetrahydrothiopyrano pyrazole cannabinoid modulators” (Janssen Pharmaceutica NV, priority 2005, dated 2009).

Legend:
human CB-2 receptor = molecular target: T1, human CB-2 receptor (Homo sapiens, UniProt P34972); assay: Binding assay, cannabinoid CB2 receptor ([3H]-CP-55,940 displacement); details: test concentration 0.2 μM (superscript a); read-out: CB2 binding percent inhibition
T1 construct: expressed in transfected cells; host or cells: SK-N-MC cells, pcDNA3 CB-2 (human), semi-purified membranes
T1 sequence (P34972 whole entry): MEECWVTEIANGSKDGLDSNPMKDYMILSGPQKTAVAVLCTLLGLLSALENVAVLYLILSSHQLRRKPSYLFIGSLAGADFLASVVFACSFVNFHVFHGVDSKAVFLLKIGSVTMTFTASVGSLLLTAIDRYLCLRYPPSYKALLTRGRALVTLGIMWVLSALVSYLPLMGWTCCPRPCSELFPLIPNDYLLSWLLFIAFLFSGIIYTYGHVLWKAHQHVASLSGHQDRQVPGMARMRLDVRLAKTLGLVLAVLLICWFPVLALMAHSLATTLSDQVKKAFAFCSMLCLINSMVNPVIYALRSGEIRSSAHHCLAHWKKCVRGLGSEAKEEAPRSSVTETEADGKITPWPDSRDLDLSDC
Description: (§1) Binding Assay for CB1 or CB2 Agonists or Inverse Agonists
(§2) The human CB-1 and CB-2 receptors were stably expressed in SK-N-MC cells transfected with pcDNA3 CB-1 (human) or pcDNA3 CB-2 (human). The cells were grown in T-180 cell culture flasks under standard cell culture conditions at 37° C. in a 5% CO2 atmosphere. The cells were harvested by trypsinization and homogenized in a homogenization buffer (10 mM Tris, 0.2 mM MgCl2, 5 mM KCl, with protease inhibitors aprotinin, leupeptin, pepstatin A and bacitracin) and centrifuged (2000 g). The supernatant was then centrifuged in 2M sucrose (31,300 g) to produce a semi-purified membrane pellet. The pellet was resuspended in homogenization and store at −80° C.
(§3) On the day of the assay, the pellet was thawed on ice and diluted in assay buffer (50 mM Tris-HCl, 5 mM MgCl2, 2.5 mM EDTA, 0.5 mg/mL fatty acid free bovine serum albumin, pH 7.5). The diluted membrane was added with buffer, test compound or standard and the radioligand [H]^3+-CP-55,940_(0.2 nM) to the wells of a 96-well polypropylene plate. Non-specific binding was measured in wells containing 10 uM WIN 55,212. The plate was covered and incubated for 90 minutes at 30° C. The contents were then aspirated onto a Packard Unifilter G/C filter bottom plate prewet with 0.5% polyethyleneimine. The wells of the polypropylene plate were rinsed and aspirated seven times with a 0.9% saline-0.5% Tween 20 solution. The Unifilter plate was dried, a scintillation cocktail was added to each well and the counts representing binding were quantitated in a TopCount scintillation counter.
(§4) The IC50 binding values for compounds tested were calculated by linear regression and were obtained from studies in which varying compound concentrations were used. Where an IC50 was not obtained, test results are provided as percent inhibition at a test concentration of ^a0.2 μM, ^b1 μM or ^c10 μM.

human CB1 receptor = human CB1 receptor (Homo sapiens, UniProt P21554); assay: Binding assay, cannabinoid CB1 receptor ([3H]-CP-55,940 displacement); parameters: expressed in transfected cells; host or cells: SK-N-MC cells, pcDNA3 CB-1 (human), semi-purified membranes; details: for inhibition at 0.2 µM: test concentration 0.2 μM (superscript a), read-out: CB1 binding percent inhibition
Chain of human CB1 receptor (P21554 whole entry): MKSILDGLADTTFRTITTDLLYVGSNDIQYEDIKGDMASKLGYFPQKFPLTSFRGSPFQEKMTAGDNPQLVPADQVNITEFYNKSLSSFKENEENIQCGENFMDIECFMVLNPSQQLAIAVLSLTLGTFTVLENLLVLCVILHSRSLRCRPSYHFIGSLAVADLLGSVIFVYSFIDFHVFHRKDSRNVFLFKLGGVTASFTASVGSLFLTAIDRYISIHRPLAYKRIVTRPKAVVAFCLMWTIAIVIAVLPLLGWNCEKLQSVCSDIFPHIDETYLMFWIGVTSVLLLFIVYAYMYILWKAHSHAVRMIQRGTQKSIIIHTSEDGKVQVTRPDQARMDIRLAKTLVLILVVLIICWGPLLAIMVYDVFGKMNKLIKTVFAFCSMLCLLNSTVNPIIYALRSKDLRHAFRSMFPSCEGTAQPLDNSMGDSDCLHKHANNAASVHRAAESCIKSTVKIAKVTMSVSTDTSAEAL
Description: as §1, §2, §3, §4

Row | Structure (SMILES) | inhibition at 0.2 µM (human CB-2 receptor) | inhibition at 0.2 µM (human CB1 receptor) | IC50 (human CB1 receptor)
1 | C[C@H](NS(=O)(=O)/C=C/c1nn(-c2ccc(Cl)cc2Cl)c2c1CSCC2Cc1cccc(Cl)c1)c1ccccc1 (stereo partly drawn) [Cpd 46, (E)-2-[7-(3-chloro-benzyl)-1-(2,4-dichloro-phenyl)-1,4,6,7-tetrahydro-thiopyrano[4,3-c]pyrazol-3-yl]-ethenesulfonic acid [(1S)-1-phenyl-ethyl]-amide] | 18% | 43% | –
2 | C[C@H](NS(=O)(=O)/C=C/c1n[nH]c2c1CSCC2Cc1cccc(F)c1)c1ccccc1 (stereo partly drawn) [Cpd 47, (E)-2-[7-(3-fluoro-benzyl)-1,4,6,7-tetrahydro-thiopyrano[4,3-c]pyrazol-3-yl]-ethenesulfonic acid [(1S)-1-phenyl-ethyl]-amide] | 26% | 24% | –
3 | C[C@@H](NS(=O)(=O)/C=C/c1n[nH]c2c1CSCC2Cc1cccc(F)c1)C1CCCCC1 (stereo partly drawn) [Cpd 48, (E)-2-[7-(3-fluoro-benzyl)-1,4,6,7-tetrahydro-thiopyrano[4,3-c]pyrazol-3-yl]-ethenesulfonic acid [(1R)-1-cyclohexyl-ethyl]-amide] | 11% | 15% | –
4 | CCOC(=O)[C@@H]1C2CCC(C2)[C@@H]1NC(=O)c1nn(-c2ccc(F)cc2F)c2c1CS(=O)(=O)C[C@@H]2Cc1cccc(F)c1 (stereo partly drawn) [Cpd 49, (2R,3S)-3-{[1-(2,4-difluoro-phenyl)-(7R)-(3-fluoro-benzyl)-5,5-dioxo-4,5,6,7-tetrahydro-1H-5λ^6-thiopyrano[4,3-c]pyrazole-3-carbonyl]-amino}-bicyclo[2.2.1]heptane-2-carboxylic acid ethyl ester] | 6% | 33% | –
5 | CCOC(=O)[C@@H]1C2CCC(C2)[C@@H]1NC(=O)c1nn(-c2ccc(F)cc2F)c2c1CS(=O)(=O)C[C@H]2Cc1cccc(F)c1 (stereo partly drawn) [Cpd 50, (2R,3S)-3-{[1-(2,4-difluoro-phenyl)-(7S)-(3-fluoro-benzyl)-5,5-dioxo-4,5,6,7-tetrahydro-1H-5λ^6-thiopyrano[4,3-c]pyrazole-3-carbonyl]-amino}-bicyclo[2.2.1]heptane-2-carboxylic acid ethyl ester] | 24% | 50% | –
6 | O=C(N[C@@H]1c2ccccc2C[C@@H]1O)c1nn(-c2ccc(F)cc2F)c2c1CS(=O)(=O)CC2Cc1cccc(F)c1 (stereo partly drawn) [Cpd 51, 1-(2,4-difluoro-phenyl)-7-(3-fluoro-benzyl)-5,5-dioxo-4,5,6,7-tetrahydro-1H-5λ^6-thiopyrano[4,3-c]pyrazole-3-carboxylic acid [(1R,2S)-2-hydroxy-indan-1-yl]-amide] | 9% | 35% | –
7 | O=C(NNc1ccc(Cl)cc1Cl)c1nn(-c2ccc(Cl)cc2Cl)c2c1CSC/C2=C\c1ccc(F)cc1 [Cpd 52, (7Z)-1-(2,4-dichloro-phenyl)-7-(4-fluoro-benzylidene)-1,4,6,7-tetrahydro-thiopyrano[4,3-c]pyrazole-3-carboxylic acid N′-(2,4-dichloro-phenyl)-hydrazide] | 28% | 66% | –
8 | O=C(NNc1ccc(Cl)cc1Cl)c1nn(-c2ccc(Cl)cc2Cl)c2c1CS(=O)(=O)C/C2=C\c1ccc(F)cc1 [Cpd 53, (7Z)-1-(2,4-dichloro-phenyl)-7-(4-fluoro-benzylidene)-5,5-dioxo-4,5,6,7-tetrahydro-1H-5λ^6-thiopyrano[4,3-c]pyrazole-3-carboxylic acid N′-(2,4-dichloro-phenyl)-hydrazide] | 30% | 55% | –
9 | O=C(NN1CCCCC1)c1nn(-c2ccc(Cl)cc2Cl)c2c1CSC/C2=C\c1ccc(F)cc1 [Cpd 54, (7Z)-1-(2,4-dichloro-phenyl)-7-(4-fluoro-benzylidene)-1,4,6,7-tetrahydro-thiopyrano[4,3-c]pyrazole-3-carboxylic acid piperidin-1-ylamide] | 25% | – | 34 nM
